# Measured values taken from publication PMC9182086, “Identification of New Non-BBB Permeable Tryptophan Hydroxylase Inhibitors for Treating Obesity and Fatty Liver Disease” (Molecules, 2022).
# Key:
# TPH1 = target: T1, TPH1 (Homo sapiens, UniProt P17752); experiment: TPH1 enzyme inhibition, in vitro screening (BPS Bioscience kit, fluorescence); format: biochemical
# T1 construct: purchased BPS Bioscience
# T1 sequence (P17752 1-444): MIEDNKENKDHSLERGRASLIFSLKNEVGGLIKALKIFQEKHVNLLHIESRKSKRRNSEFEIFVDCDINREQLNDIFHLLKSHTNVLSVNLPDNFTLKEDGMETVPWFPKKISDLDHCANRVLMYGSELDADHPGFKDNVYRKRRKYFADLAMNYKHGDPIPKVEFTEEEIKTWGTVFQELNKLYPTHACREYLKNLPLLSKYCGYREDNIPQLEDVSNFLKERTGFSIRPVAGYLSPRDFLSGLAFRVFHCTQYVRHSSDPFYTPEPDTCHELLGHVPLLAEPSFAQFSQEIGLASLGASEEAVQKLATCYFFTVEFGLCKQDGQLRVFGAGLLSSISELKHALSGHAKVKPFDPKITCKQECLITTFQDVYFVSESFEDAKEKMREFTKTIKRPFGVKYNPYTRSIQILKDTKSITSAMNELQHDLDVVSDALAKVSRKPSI
# Description: Consequently, the core structure of thienopyrimidine tyrosine (derivative 6) was selected as the starting point for the synthesis, evaluating the structure-activity relationships (SAR), and optimization of TPH1 inhibitors. […]
# In vitro screening was performed as described previously [PMID: 33417443]. Briefly, TPH1 enzyme activity was measured with a commercially available kit (BPS Bioscience). Compounds were dissolved in DMSO (Sigma). Then, 10 μL of the compound was dispensed into a 96-well microplate, and 40 μL of the TPH1 enzyme solution (320 ng enzyme/reaction) was added. Then, 50 μL of the TPH1 reaction solution was added, and the microplate was sealed with aluminum foil. The microplate was immediately cooled to 4 °C, gently shaken, and incubated for 4 h. After a defined time, 10 μL of the TPH1 quench solution was added. Then, the fluorescence was measured with a Flexstation3 microplate reader at 300 nm for excitation and 360 nm for emission. All experiments were performed in triplicate.
# HFD-fed C57BL/6J mice = experiment: In vivo efficacy test in high-fat diet fed mice; design: species or system mouse; settings: vs vehicle
# Description: All animal study protocols were approved by the Institutional Animal Care and Use Committee at the Korea Advanced Institute of Science and Technology. Male C57BL/6J mice were purchased from SLC (Shizuoka, Japan) and acclimatized for a week. Mice were housed in a humidity and temperature-controlled environment under a 12 h light-dark cycle with ad libitum access to water and food. After acclimatization, male mice were fed a high-fat diet (HFD, 60% fat calories, Research diet; New Brunswick, NJ) and received daily treatment with TPH1 inhibitors. […] Compound 18i was dissolved in 5% dimethyl sulfoxide (DMSO) (Sigma, St. Louis, MO, USA) and 25% β-cyclodextrin (Sigma, St. Louis, MO, USA). Vehicle or compound 18i (100 mg kg^−1) was injected intraperitoneally in mice for 10 days after two weeks of HFD feeding. Both compounds 19 and 21 were prepared in 10% DMSO and 10% Kolliphor EL (Sigma, St. Louis, MO, USA). Vehicle and 100 mg kg^−1 of compound 19 or compound 21 were administered daily by intraperitoneal injection or oral feeding, respectively, concomitant to the initiation of HFD feeding. For analyzing blood glucose concentration, glucose in blood collected from the tail vein was measured after fasting mice for 16 h using a Gluco Dr. Top glucometer (Allemedicus, Anyang, Korea). Body weight was measured daily and mice were sacrificed for harvesting adipose tissue and liver.
# Tissue samples were fixed in 10% formalin, embedded in paraffin, and cut into 5 μm thick sections, followed by deparaffinization and rehydration for H&E staining and UCP1 immunohistochemistry. After heat-induced antigen retrieval with a citrate buffer (pH 6.0) for 10 min at 95°C, tissue sections were incubated with BLOXALL Blocking solution (Vector Laboratories, Burlingame, CA, USA) to block endogenous peroxidase, followed by incubation with 2% normal goat serum in phosphate-buffered saline (PBS) for 30 min at room temperature to block nonspecific binding. Sections were incubated overnight with the anti-UCP1 primary antibody diluted 1:200 in 2% normal goat serum in PBS (Abcam, Cambridge, UK) at 4 °C, followed by 30 min incubation with biotinylated anti-rabbit IgG secondary antibody diluted 1:400 in PBS for 30 min at room temperature. After incubation with Vectastain […] reagent (Vector Laboratories) for 30 min, peroxidase activity was visualized with 3,3′-diaminobenzidine substrates (Vector Laboratories). For measuring average adipocyte size, we analyzed three random fields of H&E stained micrographs per adipose tissue sample from two representative mice of each group using AdipoCount software.
# Fresh liver tissues were flash frozen in O.C.T. compound (Sakura Finetek, Torrance, CA, USA) and 10 μm cryostat sections were collected on glass slides. Sections were allowed to air-dry for 1 h, rinsed with PBS for 5 min, and washed with distilled water for 5 min. After washing, sections were placed in 30% isopropanol for 5 min, 60% isopropanol for 5 min twice, and then stained in Oil Red O solution (0.5% Oil red O (Sigma, St. Louis, MO, USA) dissolved in 60% isopropanol) for 15 min. The stained sections were rinsed twice with distilled water, mounted, coverslipped, and documented using bright field microscopy.
compound,measurement,setting,value
"Cc1ccn(-c2cc(Cl)ccc2[C@@H](Oc2ncnc3c(-c4ccc(C[C@H](N)C(=O)O)cc4)csc23)C(F)(F)F)n1.Cl [Compound 18i, (S)-2-amino-3-(4-(4-((R)-1-(4-chloro-2-(3-methyl-1H-pyrazol-1-yl)phenyl)-2,2,2-trifluoroethoxy)thieno[3,2-d]pyrimidin-7-yl)phenyl)propanoic acid hydrochloride]",IC50,TPH1,37 nM
same,inhibition at 1 µM,TPH1; 1 µM compound,95%
same,Body weight gain,HFD-fed C57BL/6J mice; 100 mg/kg ip daily for 10 days after two weeks of HFD,blunted weight gain
same,eWAT and BAT adipocyte size (histology),HFD-fed C57BL/6J mice; 100 mg/kg ip daily for 10 days,significant reduction
same,Fasting blood glucose levels,HFD-fed C57BL/6J mice; 16 h fasting,lower fasting blood glucose levels
